The nature of series [1]: physchem. The note with it: water.
Description: Solubility of the compound in water at 35 degC
The nature of series [2]: Solubility of the compound. The format is physicochemical.
Series [3] in a line: Solubility of the compound at pH 7.4. The note with it: buffer. The format is physicochemical.
Series [4] is described as follows: physchem. The note with it: octanol/water.
Description: Lipophilicity, log P of the compound
A short description of series [5]: Dissociation constant, pKa of the compound. Type of series: physicochemical.

From ChEMBL document CHEMBL4177661, “Improvement in aqueous solubility achieved via small molecular changes” (Bioorg Med Chem Lett, 2017) come the findings set out here.

A word on the solubility: it is the dissolved amount per volume that the medium holds. Read a low solubility as little dissolved substance. What is called logP is the decadic logarithm of the partition coefficient of the neutral form, usually between octanol and water. Lower therefore signals a more hydrophilic compound. A word on the pKa: it is the pH at which an ionisable group is half protonated. Higher therefore signals a group that holds its proton tightly.

Each structure is given as a SMILES string. ≈ marks a conversion by molar mass, not a printed value.

The molecule `CC(C)CCC[C@@H](C)[C@H]1CC[C@H]2[C@@H]3CC[C@H]4C[C@@H](O)CC[C@]4(C)[C@H]3CC[C@]12C` had a solubility in “physchem [1]” of 0.009 µg/mL (≈ 0.0232 µM).

As for `C=CCCCCCC`, in series [2], the concentration in solution (solubility) came to 3 µg/mL (≈ 26.7 µM).

In series [2], `Oc1cccc2nccnc12` displayed a solubility of 6600 µg/mL (≈ 45200 µM).

With `Oc1cccc2cncnc12`, in series [2], the solubility was 1300 µg/mL (≈ 8900 µM).

Consider `Oc1cccc2ccnnc12`, for which the solubility in series [2] was determined as 600 µg/mL (≈ 4110 µM).

Molecule `O=C(Nc1ccc(-c2nnc(-c3ccccc3)o2)cc1)c1ccccc1` returned a solubility in series [3] of 5.89 µg/mL (≈ 17.3 µM).

Regarding `O=C(Nc1ccc(-c2nc(-c3ccccc3)no2)cc1)c1ccccc1`, the solubility in series [3] worked out at 6.12 µg/mL (≈ 17.9 µM).

On to `O=C(Nc1ccc(-c2nnc(-c3ccccc3)o2)cc1)c1ccc(F)cc1`, for which, in series [3], the solubility was found to be 5 µg/mL (≈ 13.9 µM).

`O=C(Nc1ccc(-c2nc(-c3ccccc3)no2)cc1)c1ccc(F)cc1`: in series [3], the solubility came out at 5.23 µg/mL (≈ 14.6 µM).

`c1ccc2c(c1)CCNC2` [1,2,3,4-TETRAHYDROISOQUINOLINE] showed a logP in “physchem [4]” of 1.71.

`C1CCCCCCC1` [CYCLOOCTANE] had a solubility in series [2] of 7 µg/mL (≈ 62.4 µM). In “physchem [4]”, the lipophilicity (logP) is 4.07.

In the case of `c1ccc2cnccc2c1` [ISOQUINOLINE], the concentration in solution in series [2] (solubility) came to 5660 µg/mL (≈ 43800 µM).

On to `CCCCCCCC` [OCTANE], for which, in series [2], the solubility was 1 µg/mL (≈ 8.75 µM). In the series “physchem [4]”, this molecule had a log partition coefficient (logP) of 4.93.

`c1cnccn1` [PYRAZINE] had a pKa in series [5] of 0.7.

As for `c1cncnc1` [PYRIMIDINE], the log partition coefficient (logP) in “physchem [4]” is -0.44.
